We go through eight compounds from patent US8163729B2 (Wyeth, priority 2007, dated 2012).

The structures appear in SMILES notation. Counter-ions that a name gives are not always drawn.

A short description of data set [1]: hygroscopicity / Dynamic Vapor Sorption (DVS) of hydrochloride salt crystal forms. The data set is classed as physicochemical. As to conditions: for hygroscopicity (Crystal Form Table) / hygroscopicity: hydrochloride salt crystal forms; for water absorbed eventually: 90% RH. The method, then:
Dynamic Vapor Sorption (DVS) was done at 26° C.

The target of data set [2] is T1, alpha7 nicotinic acetylcholine receptor (Rattus norvegicus, UniProt Q05941).
T1 construct: expressed in transfected cells
T1 sequence (Q05941 23-502): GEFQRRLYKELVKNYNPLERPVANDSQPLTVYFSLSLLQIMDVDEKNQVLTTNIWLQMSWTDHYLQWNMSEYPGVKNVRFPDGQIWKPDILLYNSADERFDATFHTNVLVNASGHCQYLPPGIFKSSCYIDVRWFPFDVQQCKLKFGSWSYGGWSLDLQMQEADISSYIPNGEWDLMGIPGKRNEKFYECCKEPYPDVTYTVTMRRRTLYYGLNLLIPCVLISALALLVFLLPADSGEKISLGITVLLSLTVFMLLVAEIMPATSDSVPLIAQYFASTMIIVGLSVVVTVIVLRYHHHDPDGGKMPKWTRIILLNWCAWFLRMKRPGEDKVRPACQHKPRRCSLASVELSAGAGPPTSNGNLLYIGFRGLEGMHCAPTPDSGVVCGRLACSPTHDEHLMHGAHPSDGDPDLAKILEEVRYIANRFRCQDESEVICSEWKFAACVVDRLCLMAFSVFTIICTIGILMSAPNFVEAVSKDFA
The data set is described as follows: functional FLIPR assay, alpha7 nAChR stably expressed in GH4C1 cells. The class given is cell-based. The following applies: agonist, concentration range 0.001 to 30 microM.
Description: Rat GH4C1 cells were then transfected with the rat receptor, cloned and analyzed for functional alpha7 nicotinic receptor expression employing a FLIPR assay to measure changes in intracellular calcium concentrations.
The FLIPR system allows the measurements of real time Ca^2+-concentration changes in living cells using a Ca^2+ sensitive fluorescence dye (such as Fluo4). This instrument enables the screening for agonists and antagonists for alpha 7 nAChR channels stably expressed in GH4C1 cells.
GH4C1 cells stably transfected with rat-alpha7-nAChR (see above) were used. These cells are poorly adherent and therefore pretreatment of flasks and plates with poly-D-lysine was carried out. Cells are grown in 150 cm^2 T-flasks, filled with 30 ml of medium at 37° C. and 5% CO2.
EC50 and IC50 values were calculated using the IDBS XLfit4.1 software package employing a sigmoidal concentration-response (variable slope) equation: Y=Bottom+((Top−Bottom)/(1+((EC50/X)^HillSlope))
The compounds were tested using the functional FLIPR primary screening assay employing the stable recombinant GH4C1 cell line expressing the alpha7 nAChR. Hits identified were validated further by generation of concentration-response curves.

Data set [3] is described as follows: solubility in water of hydrochloride salt crystal forms. The data set is classed as physicochemical.

The melting point is the temperature, or range, at which the solid turns liquid. The compound `COc1ccc(-c2cc(NC(=O)CCCCN3CCCN(C(C)=O)CC3)[nH]n2)cc1` (as salt: hydrochloric acid salt) [5-(4-Acetyl-[1,4]diazepan-1-yl)-pentanoic acid [5-(4-methoxy-phenyl)-2H-pyrazol-3-yl]-amide] showed a melting point of 185 °C.

Compound `COc1ccc(-c2cc(NC(=O)CCCCN3CCCN(C(C)=O)CC3)[nH]n2)cc1` (as salt: hydrochloride) [Example 4, 5-(4-Acetyl-[1,4]diazepan-1-yl)-pentanoic acid [5-(4-methoxy-phenyl)-2H-pyrazol-3-yl]-amide] came in with a melting point of 132 to 133 °C.

With `COc1ccc(-c2cc(NC(=O)CCCCN3CCCN(C(C)=O)CC3)[nH]n2)cc1` [Crystal Form III, 5-(4-Acetyl-[1,4]diazepan-1-yl)-pentanoic acid [5-(4-methoxy-phenyl)-2H-pyrazol-3-yl]-amide], the “hygroscopicity (Crystal Form Table)” value in data set [1] was “Hygroscopic”.

`COc1ccc(-c2cc(NC(=O)CCCCN3CCCN(C(C)=O)CC3)[nH]n2)cc1` [Crystal Form V, 5-(4-Acetyl-[1,4]diazepan-1-yl)-pentanoic acid [5-(4-methoxy-phenyl)-2H-pyrazol-3-yl]-amide]: in data set [1] (at RH 50%), the water uptake entry is “(7% at RH”. In data set [1], the “hygroscopicity (Crystal Form Table)” value was “Hygroscopic”.

As usually defined, the EC50 is the concentration that produces a half-maximal response. A higher EC50 goes with a less potent agent. As to `C[N+]1(C)CCN(c2ccccc2)CC1` [DMPP], in data set [2], the EC50 is 980 ± 470 nM.

As to `COc1ccc(-c2cc(NC(=O)CCCCN3CCCN(C(C)=O)CC3)n[nH]2)cc1.Cl` [Form I, 5-(4-acetyl-1,4-diazepan-1-yl)-N-(5-(4-methoxyphenyl)-1H-pyrazol-3-yl)pentanamide hydrochloric salt Form I], in data set [1] (DVS at 26° C.), the water absorbed eventually result is recorded as “up to 2%” and the “relative humidity at which the form picks up moisture” value is given as “about 50%”. The moisture gain entry in data set [1] (at 70-100% RH, lost without significant hysteresis on decreasing RH) is “at least 12%”. In addition, the moisture gain entry in data set [1] (equilibrated at RH less than or equal to 70%) is reported as “about 0.5%”. Moreover, in data set [1], the “hygroscopicity” value is given as “relatively non-hygroscopic”. The solubility in water entry in data set [3] was “considerably soluble in water”.

Turning to `COc1ccc(-c2cc(NC(=O)CCCCN3CCCN(C(C)=O)CC3)n[nH]2)cc1.Cl` [Form II, 5-(4-acetyl-1,4-diazepan-1-yl)-N-(5-(4-methoxyphenyl)-1H-pyrazol-3-yl)pentanamide hydrochloric salt Form II], in data set [1] (DVS at 26° C.), the water absorbed eventually result was “up to 7%” and the “relative humidity at which the form picks up moisture” value is recorded as “about 20%”. Further, in data set [1] (RH 0%, DVS at 26° C.), the “water held at low RH” value is on record as 2%. In data set [1], the “hygroscopicity” value is “non-hygroscopic”. In data set [3], the solubility in water entry is “considerably soluble in water”.

For `COc1ccc(-c2cc(NC(=O)CCCCN3CCCN(C(C)=O)CC3)n[nH]2)cc1.Cl` [mono-HCl salt, 5-(4-Acetyl-[1,4]diazepan-1-yl)-pentanoic acid [5-(4-methoxy-phenyl)-1H-pyrazol-3-yl]-amide (mono hydrochloride salt)], in data set [1], the “form change after DVS test” value is recorded as “NO form change”.
